Results: patent publication US10479793B2, “Imidazopyridazine compounds useful as modulators of IL-12, IL-23 and/or IFN alpha responses” (BRISTOL-MYERS SQUIBB COMPANY, priority 2015, dated 2019)
Where two headings read alike, the source gives them in different places.

Key:
[1] = target: T1, recombinantly expressed His-tagged protein corresponding to amino acids 575-869 of human Tyk2 (Homo sapiens, UniProt P29597); assay: Probe displacement assay (scintillation proximity, tritiated probe); type: binding; conditions: His-tagged Tyk2 (575-869) 2.5 nM, 40 nM radiolabeled probe, 30 minutes at room temperature
T1 construct: made in house
T1 sequence (P29597 with tags, fused parts or gaps): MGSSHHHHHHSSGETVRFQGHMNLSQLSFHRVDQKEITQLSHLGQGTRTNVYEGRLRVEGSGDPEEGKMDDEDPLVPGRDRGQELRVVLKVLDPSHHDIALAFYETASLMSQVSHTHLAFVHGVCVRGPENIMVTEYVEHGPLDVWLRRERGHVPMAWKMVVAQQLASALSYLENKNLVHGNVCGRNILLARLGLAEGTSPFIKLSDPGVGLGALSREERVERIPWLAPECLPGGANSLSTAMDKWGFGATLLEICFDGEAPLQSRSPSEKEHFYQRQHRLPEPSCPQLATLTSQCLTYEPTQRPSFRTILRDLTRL
Method: The preparation of radiolabeled probe, (R)—N-(1-(3-(8-methyl-5-(methylamino)-8H-imidazo[4,5-d]thiazolo[5,4-b]pyridin-2-yl)phenyl)ethyl)-2-([^3H]methylsulfonyl)benzamide, was performed as described below: […]

[2] = tested on: IL-23 stimulated Kit225 T cells with a stably-integrated STAT-dependent luciferase reporter; assay: Kit225 T cell assay, IL-23 stimulated STAT-dependent luciferase reporter; type: cell-based, human; conditions: luciferase, read-out: IL-23 Kit225 Reporter, (IC50)
Method: (§1) Kit225 T cells with a stably-integrated STAT-dependent luciferase reporter were plated in RPMI (GIBCO) containing 10% heat-inactivated FBS (GIBCO) and 100 U/mL PenStrep (GIBCO). The cells were then stimulated with either 20 ng/mL human recombinant IL-23 or 200 U/mL human recombinant IFNα (PBL InterferonSource) for 5-6 hours. Luciferase expression was measured using the STEADY-GLO Luciferase Assay System (PROMEGA) according to the manufacturer's instructions.

[3] = tested on: IFNα stimulated Kit225 T cells with a stably-integrated STAT-dependent luciferase reporter; assay: Kit225 T cell assay, IFNα stimulated STAT-dependent luciferase reporter; type: cell-based, human
Method: as §1

[4] = KIT225, 20 ng/mL human recombinant IL-23, 5-6 hours
[5] = KIT225, 200 U/mL human recombinant IFNα, 5-6 hours, luciferase, read-out: IFNa Kit225 Reporter, (IC50)
[6] = Homo sapiens, KIT225, 20 ng/mL human recombinant IL-23, 5-6 hours
[7] = Homo sapiens, KIT225, 200 U/mL human recombinant IFNα, 5-6 hours, luciferase, read-out: IFNa Kit225 Reporter, (IC50)

Row | SMILES | EC50 [1] | IC50 [2, 4] | IC50 [3, 5] | IC50 [2, 6] | IC50 [3, 7] | IC50 ([3]; Homo sapiens, KIT225, read-out: IFNa Kit225 Reporter, (IC50, uM))
1 | CNc1cc(Nc2cccnc2-n2cccn2)nn2c(C(=O)NCC(C)(C)O)cnc12 [Example 31] | 130 nM | 580 nM | 2.58 µM |  |  | 
2 | CCCCCNc1cc(Nc2cc(C)cc(C)c2)nn2c(C(N)=O)cnc12 [Example 55] | 80 nM | 2380 nM | 3.62 µM |  |  | 
3 | CNc1cc(N2CCc3ccccc32)nn2c(C(=O)NCC(C)(C)O)cnc12 [Example 11] | 90 nM | 2900 nM | 2.27 µM |  |  | 
4 | Cc1cc(C)cc(Nc2nc(NC3CC3)c3ncc(C(N)=O)n3n2)c1 [Example 70] | 80 nM | 11200 nM | 12.5 µM |  |  | 
5 | O=C(NC1CC1)c1cnc2c(NCCN3CCOCC3)cc(Nc3cccc4c3OCCO4)nn12 [Example 110] | 7.52 nM | 160 nM | 0.12 µM |  |  | 
6 | CNc1cc(Nc2cc(C)cc(F)c2)nn2c(C(=O)NC3CC3)cnc12 [Example 2] | 3.24 nM |  |  | 30 nM | 0.03 µM | 
7 | CNc1cc(Nc2c(F)c(F)cc(F)c2F)nn2c(C(N)=O)cnc12 [Example 19] | 5.86 nM | 270 nM | 0.17 µM |  |  | 
8 | CNc1cc(Nc2cc(C)cc(C)c2)nn2c(C(=O)NC3CC3)cnc12 [Example 114] |  |  |  |  |  | 0.1 µM
9 | CNc1cc(Nc2cccnc2OC)nn2c(C(=O)NC3(C#N)CC3)cnc12 [Example 24] | 7.25 nM | 40 nM | 0.05 µM |  |  | 
10 | CNc1cc(Nc2cccc(N3CCCC3=O)n2)nn2c(C(=O)NC3CC3)cnc12 [Example 88] | 8.34 nM | 10 nM | 0.02 µM |  |  | 
11 | CNc1cc(Nc2cc(F)cc(F)c2OC)nn2c(C(N)=O)cnc12 [Example 83] | 5.76 nM | 170 nM | 0.06 µM |  |  | 
12 | CNc1cc(Nc2cccnc2C)nn2c(C(=O)NC3CC3)cnc12 [Example 97] | 30 nM |  |  | 420 nM | 0.65 µM | 
13 | CNc1cc(Nc2cccnc2OC)nn2c(C(=O)NC3CC3)cnc12 [Example 94] | 1.37 nM |  |  | 20 nM | 0.03 µM | 
14 | CNc1cc(Nc2cccnc2-n2ccc(C(F)(F)F)n2)nn2c(C(=O)NC3CC3)cnc12 [Example 99] | 570 nM |  |  |  |  | 
15 | CNc1cc(N2CCc3ccccc32)nn2c(C(=O)NC3CCC3)cnc12 [Example 10] | 7.57 nM | 160 nM | 0.08 µM |  |  | 
16 | CNc1cc(Nc2cccnc2-n2cccn2)nn2c(C(=O)NCCO)cnc12 [Example 30] | 20 nM | 350 nM | 0.21 µM |  |  | 
17 | CNc1cc(Nc2cncc(C)c2)nn2c(C(=O)NC3CC3)cnc12 [Example 96] | 7.18 nM |  |  | 510 nM | 0.6 µM | 
18 | N#Cc1cc(Nc2cc(NC3CC3)c3ncc(C(=O)NCCO)n3n2)cc(C(F)(F)F)c1 [Example 35] | 160 nM | 8070 nM | 8.48 µM |  |  | 
19 | Cc1cc(C)cc(Nc2cc(NCC3CC3)c3ncc(C(N)=O)n3n2)c1 [Example 51] | 70 nM | 3740 nM | 2.9 µM |  |  | 
20 | NC(=O)c1cnc2c(NC3CC3)cc(Nc3cccc(F)c3)nn12 [Example 47] | 40 nM | 1120 nM | 1.13 µM |  |  | 
21 | CCNC(=O)c1cnc2c(NC3CC3)cc(Nc3cc(C#N)cc(C(F)(F)F)c3)nn12 [Example 36] | 350 nM | 3330 nM | 12.5 µM |  |  | 
22 | CNc1cc(Nc2cccnc2-n2ccc(C)n2)nn2c(C(=O)NC3CC3)cnc12 [Example 101] | 270 nM |  |  | 7190 nM | 5.79 µM | 
23 | CNc1cc(Nc2cccc(OC(F)(F)F)c2)nn2c(C(=O)NC3CCC3)cnc12 [Example 5] | 7.29 nM |  |  | 500 nM | 0.5 µM | 

Row | SMILES | EC50 [1] | IC50 [2, 4] | IC50 [3, 5] | IC50 [2, 6] | IC50 [3, 7] | IC50 ([3]; Homo sapiens, KIT225, read-out: IFNa Kit225 Reporter, (IC50, uM))
24 | CNc1cc(Nc2cccnc2F)nn2c(C(=O)NC3CC3)cnc12 [Example 95] | 20 nM |  |  | 370 nM | 0.27 µM | 
25 | CNc1cc(Nc2cc(F)cc(F)c2F)nn2c(C(=O)NCC(C)(C)O)cnc12 [Example 14] | 7.03 nM | 370 nM | 0.26 µM |  |  | 
26 | Cc1cc(C)cc(Nc2cc(Nc3cccnc3)c3ncc(C(N)=O)n3n2)c1 [Example 64] | 70 nM | 12500 nM | 12.5 µM |  |  | 
27 | Cc1cc(C)cc(Nc2cc(Nc3cc(C)n(C)n3)c3ncc(C(N)=O)n3n2)c1 [Example 62] | 300 nM | 13200 nM | 11 µM |  |  | 
28 | Cc1cc(C)cc(Nc2cc(N)c3ncc(C(N)=O)n3n2)c1 [Example 67] | 10 nM | 700 nM | 0.73 µM |  |  | 
29 | O=C(NC1CCC1)c1cnc2c(NC3CC3)cc(Nc3cc(F)cc(F)c3F)nn12 [Example 44] | 60 nM | 1460 nM | 1.39 µM |  |  | 
30 | CNc1cc(Nc2cccc(-n3cccn3)n2)nn2c(C(=O)NC3CC3)cnc12 [Example 85] | 9.31 nM | 40 nM | 0.03 µM |  |  | 
31 | CNc1cc(Nc2cc(F)ccc2F)nn2c(C(=O)NC3CC3)cnc12 [Example 8] | 3.61 nM |  |  | 30 nM | 0.03 µM | 
32 | CNc1cc(Nc2cc(F)ccc2F)nn2c(C(N)=O)cnc12 [Example 6] | 4.21 nM | 120 nM | 0.09 µM |  |  | 
33 | CNc1nc(Nc2cc(C)cc(C)c2)nn2c(C(N)=O)cnc12 [Example 69] | 5.44 nM | 420 nM | 0.15 µM |  |  | 
34 | Cc1cc(F)cc(Nc2cc(NCC(F)(F)F)c3ncc(C(N)=O)n3n2)c1 [Example 59] | 160 nM | 9480 nM | 12.5 µM |  |  | 
35 | CNc1cc(Nc2ccccc2OC)nn2c(C(=O)NC3CC3)cnc12 [Example 77] | 4.02 nM |  |  | 30 nM | 0.01 µM | 
36 | CNc1cc(Nc2c(F)c(F)cc(F)c2F)nn2c(C(=O)NC3CC3)cnc12 [Example 20] | 3.97 nM |  |  | 60 nM | 0.05 µM | 
37 | Cc1cc(C)cc(Nc2cc(NCCCN(C)C)c3ncc(C(N)=O)n3n2)c1 [Example 50] | 70 nM | 2320 nM | 1.28 µM |  |  | 
38 | Cc1cc(C)cc(Nc2cc(Nc3cnccn3)c3ncc(C(N)=O)n3n2)c1 [Example 63] | 280 nM | 12500 nM | 12.5 µM |  |  | 
39 | CNc1cc(Nc2c(F)c(F)cc(F)c2F)nn2c(C(=O)NCC(C)(C)O)cnc12 [Example 21] | 30 nM | 390 nM | 0.21 µM |  |  | 
40 | CNc1cc(Nc2cccnc2-n2cccn2)nn2c(C(=O)NC3CCCC3O)cnc12 (stereo not shown) [Example 28] | 60 nM | 330 nM | 0.45 µM |  |  | 
41 | CNc1cc(Nc2cccc(-c3ccc(C(F)(F)F)cc3F)c2)nn2c(C(=O)NC[C@@](C)(O)CO)cnc12 [Example 113] | 7.62 nM | 750 nM |  |  |  | 
42 | CNc1cc(N2CCc3ccccc32)nn2c(C(=O)NC3CC3)cnc12 [Example 78] | 8.17 nM | 180 nM | 0.07 µM |  |  | 
43 | CNc1cc(Nc2cccc(-n3ccc(C(F)(F)F)n3)n2)nn2c(C(=O)NC3CC3)cnc12 [Example 89] | 10 nM | 390 nM | 0.44 µM |  |  | 
44 | CNc1cc(Nc2cc(C)cc(C)c2)nn2c(C(=O)N3CC(O)C3)cnc12 [Example 7] | 250 nM |  |  |  | 3.3 µM | 
45 | CNc1cc(Nc2cccnc2C(=O)NCCOC)nn2c(C(=O)NC3CC3)cnc12 [Example 108] | 7.59 nM |  |  |  |  | 
